From patent US12171232B1, “N-[(4,6-dimethylpyrimidin-2-yl)carbamothioyl] pyridine-3-carboxamide as an eco-friendly insecticidal agent against Spodoptera littoralis (boisd.)” (KING FAISAL UNIVERSITY, priority 2023, dated 2024) come the findings set out here.

SMILES strings stand for the structures. Converted amounts (≈) assume the structure as drawn. Where two headings read alike, the source gives them in different places.

This assay concerns Spodoptera littoralis. As to the kind of experiment: Insecticidal bioassay screening (castor leaf dip) on larvae of the laboratory strain of cotton leafworm. It counts as in vivo. As to conditions: for Toxicity index %: 72 hrs, Diflubenzuron's LC50 / compound's LC50 x 100; for LC90 (mg/L) at 95%: laboratory strain, after 72 hrs of treatment; for LC50: Spodoptera littoralis, foliar. The protocol:
Five concentrations (200, 100, 50, 25, 12.5 ppm) were designed for this synthetic compound and the reference Diflubenzuron compound as the dynamic ingredients based on ppm via diluting the commercial formulation.
In this experiment, castor leaves are immersed in each of the previously prepared concentrations of the components for 10 seconds and then left to dry for 60 minutes. Larvae of the second and fourth instars of each checked strain are prepared with treated leaves in gauze-covered glass containers for 72 hrs. An untreated control is made in which leaves are dipped in triton x-100 and distilled water only. Then the preserved leaves were removed & fresh, untreated leaves were provided for 72 hours. Three replicates (10 larvae each) were checked for each concentration. Daily inspection was carried out for all treatments and mortality percentages were recorded 3 days (72 hours) after treatment. The average mortality percentage was corrected employing Abbott's formula. The corrected mortality rate for each of the previously synthesized compounds is statistically calculated according to Finney (1970). Through this rate, the corresponding concentration test lines (LDP lines) are assessed.

The mark [1] stands for this setting: 72 h, read-out: LC50 (mg/L) at 95%, 2nd instar larvae, laboratory strain, after 72 hrs of treatment.
Setting [2] is: 72 h, read-out: LC50 (mg/L) at 95%, 4th instar larvae, laboratory strain, after 72 hrs of treatment.

The compound `Cc1cc(C)nc(NC(=S)NC(=O)c2cccnc2)n1` [Compound 2, N-[(4,6-Dimethylpyrimidin-2-yl)carbamothioyl]pyridine-3-carboxamide] came in with a Toxicity index % (2nd instar larvae) of 31.8% and a Toxicity index % (4th instar larvae) of 44.9%. The “LC90 (mg/L) at 95%” value runs as follows: (2nd instar larvae) 2112.3 mg/L (≈ 7350 µM); (4th instar larvae) 5732.3 mg/L (≈ 19900 µM). In addition, the LC50 was ~142 mg/L (≈ 495 µM) under setting [1] and ~321 mg/L (≈ 1120 µM) under setting [2]. In addition, the “activity against Spodoptera littoralis” value (result in words, from Table 1 and FIGS. 2A-2B, 72 h) is listed as “active”.
On to `O=C(NC(=O)c1c(F)cccc1F)Nc1ccc(Cl)cc1` [Diflubenzuron], for which the Toxicity index % turned out to be 100% (2nd instar larvae) and 100% (4th instar larvae). For the same compound, the “LC90 (mg/L) at 95%” value is reported as 520.0 mg/L (≈ 1670 µM) (2nd instar larvae) and 1540.5 mg/L (≈ 4960 µM) (4th instar larvae). Moreover, the LC50 amounted to 45.2 mg/L (≈ 145 µM) under setting [1]; 144 mg/L (≈ 464 µM) under setting [2]; 45.2 mg/L (≈ 145 µM) (against Spodoptera littoralis under laboratory conditions, instar not stated).
